Reference: ChEMBL document CHEMBL5653631, “A Potent and Selective ULK1 Inhibitor Suppresses Autophagy and Sensitizes Cancer Cells to Nutrient Stress” (iScience, 2018)

Key:
[1] = molecular target: T1, Serine/threonine-protein kinase D3 (Homo sapiens) (UniProt O94806); assay: Inhibition of human recombinant PKD3 at 40 nM related to control ULK1
T1 sequence (whole entry): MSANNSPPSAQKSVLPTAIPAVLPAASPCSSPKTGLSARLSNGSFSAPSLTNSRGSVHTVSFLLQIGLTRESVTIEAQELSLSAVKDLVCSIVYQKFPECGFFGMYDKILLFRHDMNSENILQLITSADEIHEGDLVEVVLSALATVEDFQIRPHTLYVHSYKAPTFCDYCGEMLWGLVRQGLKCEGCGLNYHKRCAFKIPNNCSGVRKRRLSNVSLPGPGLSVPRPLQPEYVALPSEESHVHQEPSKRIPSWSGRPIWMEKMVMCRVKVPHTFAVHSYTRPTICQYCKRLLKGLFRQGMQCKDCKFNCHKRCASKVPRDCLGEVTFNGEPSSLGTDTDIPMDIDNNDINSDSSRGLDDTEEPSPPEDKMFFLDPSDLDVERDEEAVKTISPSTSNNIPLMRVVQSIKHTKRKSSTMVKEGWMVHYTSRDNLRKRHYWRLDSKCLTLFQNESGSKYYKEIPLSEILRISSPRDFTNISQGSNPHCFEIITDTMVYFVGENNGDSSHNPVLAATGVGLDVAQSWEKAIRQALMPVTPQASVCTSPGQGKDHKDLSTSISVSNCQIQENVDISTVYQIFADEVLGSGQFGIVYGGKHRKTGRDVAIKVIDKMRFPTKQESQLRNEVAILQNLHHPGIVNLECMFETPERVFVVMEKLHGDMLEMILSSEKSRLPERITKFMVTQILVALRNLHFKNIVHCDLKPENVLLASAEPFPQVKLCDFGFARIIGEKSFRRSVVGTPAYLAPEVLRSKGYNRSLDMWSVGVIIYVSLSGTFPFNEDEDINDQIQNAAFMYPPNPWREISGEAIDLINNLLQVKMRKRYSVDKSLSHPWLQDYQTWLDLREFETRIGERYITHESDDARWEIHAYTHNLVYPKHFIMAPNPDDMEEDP

[2] = molecular target: Proto-oncogene tyrosine-protein kinase Src (Homo sapiens) (UniProt P12931); assay: Inhibition of human recombinant SRC at 40 nM related to control ULK1
Proto-oncogene tyrosine-protein kinase Src (Homo sapiens), sequence (P12931 2-536 limits assumed): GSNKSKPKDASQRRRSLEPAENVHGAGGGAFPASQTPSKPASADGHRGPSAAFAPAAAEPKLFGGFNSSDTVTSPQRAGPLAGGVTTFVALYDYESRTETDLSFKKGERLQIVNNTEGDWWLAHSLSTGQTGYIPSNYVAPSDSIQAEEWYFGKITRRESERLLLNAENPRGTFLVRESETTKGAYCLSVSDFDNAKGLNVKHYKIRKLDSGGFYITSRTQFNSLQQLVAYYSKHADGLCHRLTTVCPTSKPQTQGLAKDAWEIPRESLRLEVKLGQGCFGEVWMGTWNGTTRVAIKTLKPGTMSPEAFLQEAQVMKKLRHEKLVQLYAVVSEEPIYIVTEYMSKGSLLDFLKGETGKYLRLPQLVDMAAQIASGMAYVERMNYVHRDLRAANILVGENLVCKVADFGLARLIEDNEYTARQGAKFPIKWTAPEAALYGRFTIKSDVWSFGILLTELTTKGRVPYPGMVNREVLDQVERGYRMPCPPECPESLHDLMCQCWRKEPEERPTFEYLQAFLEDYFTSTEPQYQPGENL

[3] = molecular target: T2, Mitogen-activated protein kinase kinase kinase 2 (Homo sapiens) (UniProt Q9Y2U5); assay: Inhibition of human recombinant MAP3K2 at 40 nM related to control ULK1
T2 sequence (whole entry): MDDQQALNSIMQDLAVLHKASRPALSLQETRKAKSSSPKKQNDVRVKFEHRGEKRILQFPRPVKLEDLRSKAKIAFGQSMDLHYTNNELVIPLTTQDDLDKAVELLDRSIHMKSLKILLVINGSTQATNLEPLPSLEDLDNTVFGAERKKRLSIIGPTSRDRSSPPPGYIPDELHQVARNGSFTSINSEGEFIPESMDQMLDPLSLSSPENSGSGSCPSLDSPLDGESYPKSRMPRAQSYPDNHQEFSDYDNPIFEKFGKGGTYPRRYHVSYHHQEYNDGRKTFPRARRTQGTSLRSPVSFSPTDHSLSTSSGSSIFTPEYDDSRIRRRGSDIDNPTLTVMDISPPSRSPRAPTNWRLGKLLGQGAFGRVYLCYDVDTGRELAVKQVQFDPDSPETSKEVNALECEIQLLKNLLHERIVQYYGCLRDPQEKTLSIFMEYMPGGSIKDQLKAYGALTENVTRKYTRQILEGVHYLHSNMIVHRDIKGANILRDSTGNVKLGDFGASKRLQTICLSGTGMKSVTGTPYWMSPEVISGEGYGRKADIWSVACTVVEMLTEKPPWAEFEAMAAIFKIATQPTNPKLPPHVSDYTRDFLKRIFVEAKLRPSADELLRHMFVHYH

[4] = molecular target: Cyclin-dependent kinase 3 (Homo sapiens) (UniProt Q00526); assay: Inhibition of human recombinant CDK3 at 500 nM in presence of ATP by radiometric assay relative to control
Cyclin-dependent kinase 3 (Homo sapiens), sequence (Q00526 whole entry, looked up): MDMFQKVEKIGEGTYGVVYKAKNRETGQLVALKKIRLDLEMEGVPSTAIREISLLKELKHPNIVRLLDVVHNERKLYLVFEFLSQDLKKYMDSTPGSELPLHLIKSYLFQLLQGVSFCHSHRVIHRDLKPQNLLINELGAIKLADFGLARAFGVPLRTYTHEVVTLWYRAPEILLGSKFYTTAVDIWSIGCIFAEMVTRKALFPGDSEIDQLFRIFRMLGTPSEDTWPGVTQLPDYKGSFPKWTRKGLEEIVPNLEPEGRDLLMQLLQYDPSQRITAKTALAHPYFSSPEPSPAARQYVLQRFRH

[5] = molecular target: T3, Tyrosine-protein kinase ITK/TSK (Homo sapiens) (UniProt Q08881); assay: Inhibition of human recombinant ITK at 500 nM related to control ULK1
T3 sequence (whole entry): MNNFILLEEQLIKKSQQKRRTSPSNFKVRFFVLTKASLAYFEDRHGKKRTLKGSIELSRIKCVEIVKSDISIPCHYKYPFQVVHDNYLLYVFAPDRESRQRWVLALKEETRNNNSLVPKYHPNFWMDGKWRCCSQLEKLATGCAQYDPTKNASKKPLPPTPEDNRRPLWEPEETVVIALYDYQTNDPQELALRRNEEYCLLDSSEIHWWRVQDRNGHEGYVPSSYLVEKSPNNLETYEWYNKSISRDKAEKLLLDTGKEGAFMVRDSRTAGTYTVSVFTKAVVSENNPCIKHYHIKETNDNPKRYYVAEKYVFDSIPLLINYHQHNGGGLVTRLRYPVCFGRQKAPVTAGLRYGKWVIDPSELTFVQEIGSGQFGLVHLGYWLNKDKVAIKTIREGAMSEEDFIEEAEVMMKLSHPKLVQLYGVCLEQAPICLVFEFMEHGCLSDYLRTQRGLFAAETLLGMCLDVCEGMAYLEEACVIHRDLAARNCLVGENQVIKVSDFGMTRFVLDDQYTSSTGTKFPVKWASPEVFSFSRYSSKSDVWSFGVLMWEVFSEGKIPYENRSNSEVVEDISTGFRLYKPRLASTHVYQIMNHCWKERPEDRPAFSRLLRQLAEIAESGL

[6] = molecular target: Mitogen-activated protein kinase kinase kinase 10 (Homo sapiens) (UniProt Q02779); assay: Inhibition of human recombinant MLK2 at 500 nM in presence of ATP by radiometric assay relative to control
Mitogen-activated protein kinase kinase kinase 10 (Homo sapiens), sequence (Q02779 whole entry, looked up): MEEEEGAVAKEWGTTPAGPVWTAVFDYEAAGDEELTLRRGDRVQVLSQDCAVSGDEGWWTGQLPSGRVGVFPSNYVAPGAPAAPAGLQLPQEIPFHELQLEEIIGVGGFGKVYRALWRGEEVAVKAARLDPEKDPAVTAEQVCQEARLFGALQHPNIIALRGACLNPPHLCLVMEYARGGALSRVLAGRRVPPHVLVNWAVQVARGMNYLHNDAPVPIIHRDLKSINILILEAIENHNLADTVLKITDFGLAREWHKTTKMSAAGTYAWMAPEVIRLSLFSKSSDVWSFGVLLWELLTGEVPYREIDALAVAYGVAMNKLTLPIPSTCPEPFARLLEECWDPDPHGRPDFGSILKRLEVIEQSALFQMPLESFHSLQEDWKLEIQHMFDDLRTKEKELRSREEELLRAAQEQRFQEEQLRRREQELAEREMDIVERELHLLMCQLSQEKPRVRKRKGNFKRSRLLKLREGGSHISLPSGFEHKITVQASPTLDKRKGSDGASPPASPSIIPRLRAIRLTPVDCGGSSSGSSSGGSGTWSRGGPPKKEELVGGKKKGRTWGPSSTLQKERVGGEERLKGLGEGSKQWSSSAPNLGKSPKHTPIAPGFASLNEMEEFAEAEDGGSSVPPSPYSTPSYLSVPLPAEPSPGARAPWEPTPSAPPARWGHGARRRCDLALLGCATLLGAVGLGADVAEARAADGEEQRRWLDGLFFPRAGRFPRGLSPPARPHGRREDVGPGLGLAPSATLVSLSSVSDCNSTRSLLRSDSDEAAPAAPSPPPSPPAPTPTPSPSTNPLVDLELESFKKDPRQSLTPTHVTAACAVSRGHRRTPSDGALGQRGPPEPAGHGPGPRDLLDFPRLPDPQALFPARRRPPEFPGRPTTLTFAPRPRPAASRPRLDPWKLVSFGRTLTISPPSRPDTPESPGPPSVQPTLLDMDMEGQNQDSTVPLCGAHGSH

[7] = molecular target: Protein kinase C iota type (Homo sapiens) (UniProt P41743); assay: Inhibition of human recombinant PKCi at 500 nM related to control ULK1
Protein kinase C iota type (Homo sapiens), sequence (P41743 whole entry, looked up): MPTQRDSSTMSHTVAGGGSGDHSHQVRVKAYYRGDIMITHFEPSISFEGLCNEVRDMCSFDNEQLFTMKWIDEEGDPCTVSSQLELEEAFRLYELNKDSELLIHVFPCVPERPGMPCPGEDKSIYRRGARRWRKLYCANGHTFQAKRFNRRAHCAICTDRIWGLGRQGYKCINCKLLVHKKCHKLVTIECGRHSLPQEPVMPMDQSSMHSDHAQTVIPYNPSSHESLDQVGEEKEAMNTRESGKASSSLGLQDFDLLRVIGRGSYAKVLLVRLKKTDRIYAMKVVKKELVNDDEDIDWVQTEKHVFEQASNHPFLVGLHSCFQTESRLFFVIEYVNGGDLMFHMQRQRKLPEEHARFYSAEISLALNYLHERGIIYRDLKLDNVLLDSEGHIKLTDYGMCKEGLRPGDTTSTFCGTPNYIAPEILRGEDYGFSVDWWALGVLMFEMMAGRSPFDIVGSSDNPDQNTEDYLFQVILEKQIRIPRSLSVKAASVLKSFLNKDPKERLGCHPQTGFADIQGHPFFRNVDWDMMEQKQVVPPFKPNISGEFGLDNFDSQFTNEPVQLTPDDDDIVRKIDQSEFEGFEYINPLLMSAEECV

[8] = molecular target: Serine/threonine-protein kinase tousled-like 2 (Homo sapiens) (UniProt Q86UE8); assay: Inhibition of human recombinant TLK2 at 500 nM related to control ULK1
Serine/threonine-protein kinase tousled-like 2 (Homo sapiens), sequence (Q86UE8 whole entry, looked up): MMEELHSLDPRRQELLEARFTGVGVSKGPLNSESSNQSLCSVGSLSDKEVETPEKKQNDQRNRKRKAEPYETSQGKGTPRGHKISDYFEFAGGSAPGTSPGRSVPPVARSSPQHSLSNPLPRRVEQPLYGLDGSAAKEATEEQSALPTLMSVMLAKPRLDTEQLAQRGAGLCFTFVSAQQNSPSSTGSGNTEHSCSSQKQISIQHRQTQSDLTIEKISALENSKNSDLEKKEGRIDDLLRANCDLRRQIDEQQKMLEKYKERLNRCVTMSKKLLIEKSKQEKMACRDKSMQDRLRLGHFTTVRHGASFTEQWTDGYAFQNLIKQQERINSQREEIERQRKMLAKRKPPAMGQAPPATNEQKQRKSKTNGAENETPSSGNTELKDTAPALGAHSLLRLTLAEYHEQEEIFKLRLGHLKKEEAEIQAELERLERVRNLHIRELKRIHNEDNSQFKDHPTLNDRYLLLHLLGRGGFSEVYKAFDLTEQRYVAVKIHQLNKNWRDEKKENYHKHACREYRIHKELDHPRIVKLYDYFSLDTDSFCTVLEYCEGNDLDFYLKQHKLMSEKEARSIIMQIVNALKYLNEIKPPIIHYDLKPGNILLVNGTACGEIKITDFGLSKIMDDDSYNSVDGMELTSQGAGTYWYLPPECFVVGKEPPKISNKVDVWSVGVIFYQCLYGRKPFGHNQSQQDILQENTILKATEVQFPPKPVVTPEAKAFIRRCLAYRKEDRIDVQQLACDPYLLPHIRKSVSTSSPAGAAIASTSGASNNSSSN

[9] = molecular target: Homeodomain-interacting protein kinase 1 (Homo sapiens) (UniProt Q86Z02); assay: Inhibition of human recombinant HIPK1 at 15 nM related to control ULK1
Homeodomain-interacting protein kinase 1 (Homo sapiens), sequence (Q86Z02 whole entry, looked up): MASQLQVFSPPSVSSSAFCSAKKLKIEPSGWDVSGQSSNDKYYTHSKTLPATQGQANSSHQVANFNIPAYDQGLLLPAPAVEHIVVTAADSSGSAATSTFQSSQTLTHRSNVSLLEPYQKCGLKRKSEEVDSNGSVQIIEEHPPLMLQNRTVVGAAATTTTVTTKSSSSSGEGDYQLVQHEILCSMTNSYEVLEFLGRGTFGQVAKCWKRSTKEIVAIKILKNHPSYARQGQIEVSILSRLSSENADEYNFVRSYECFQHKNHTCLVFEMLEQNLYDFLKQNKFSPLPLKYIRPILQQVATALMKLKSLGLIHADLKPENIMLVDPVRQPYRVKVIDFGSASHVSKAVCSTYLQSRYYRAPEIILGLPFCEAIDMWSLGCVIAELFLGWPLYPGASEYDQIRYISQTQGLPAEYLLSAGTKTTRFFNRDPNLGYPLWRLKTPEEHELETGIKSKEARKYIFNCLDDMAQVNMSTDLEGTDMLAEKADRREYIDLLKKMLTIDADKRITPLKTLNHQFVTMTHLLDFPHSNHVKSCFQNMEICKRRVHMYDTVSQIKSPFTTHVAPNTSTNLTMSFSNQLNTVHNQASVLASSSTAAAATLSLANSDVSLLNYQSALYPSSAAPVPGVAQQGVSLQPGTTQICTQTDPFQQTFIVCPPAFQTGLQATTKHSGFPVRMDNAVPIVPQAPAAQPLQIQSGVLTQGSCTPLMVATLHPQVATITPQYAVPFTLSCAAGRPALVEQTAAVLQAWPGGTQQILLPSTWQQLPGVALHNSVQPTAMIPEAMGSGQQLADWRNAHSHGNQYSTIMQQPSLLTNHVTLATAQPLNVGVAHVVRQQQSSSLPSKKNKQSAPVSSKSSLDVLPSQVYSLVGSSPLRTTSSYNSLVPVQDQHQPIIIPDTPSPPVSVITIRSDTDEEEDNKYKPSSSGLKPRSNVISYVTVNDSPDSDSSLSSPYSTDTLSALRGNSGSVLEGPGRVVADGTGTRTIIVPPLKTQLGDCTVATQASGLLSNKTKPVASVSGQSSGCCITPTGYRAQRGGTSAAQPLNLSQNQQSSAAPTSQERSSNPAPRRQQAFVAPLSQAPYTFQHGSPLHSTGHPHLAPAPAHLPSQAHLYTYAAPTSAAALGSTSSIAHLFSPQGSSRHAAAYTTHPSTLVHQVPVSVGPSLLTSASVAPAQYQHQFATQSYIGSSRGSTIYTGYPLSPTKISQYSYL

[10] = molecular target: Calcium/calmodulin-dependent protein kinase type II subunit gamma (Homo sapiens) (UniProt Q13555); assay: Inhibition of human recombinant CaMK2g at 15 nM related to control ULK1
Calcium/calmodulin-dependent protein kinase type II subunit gamma (Homo sapiens), sequence (Q13555 whole entry): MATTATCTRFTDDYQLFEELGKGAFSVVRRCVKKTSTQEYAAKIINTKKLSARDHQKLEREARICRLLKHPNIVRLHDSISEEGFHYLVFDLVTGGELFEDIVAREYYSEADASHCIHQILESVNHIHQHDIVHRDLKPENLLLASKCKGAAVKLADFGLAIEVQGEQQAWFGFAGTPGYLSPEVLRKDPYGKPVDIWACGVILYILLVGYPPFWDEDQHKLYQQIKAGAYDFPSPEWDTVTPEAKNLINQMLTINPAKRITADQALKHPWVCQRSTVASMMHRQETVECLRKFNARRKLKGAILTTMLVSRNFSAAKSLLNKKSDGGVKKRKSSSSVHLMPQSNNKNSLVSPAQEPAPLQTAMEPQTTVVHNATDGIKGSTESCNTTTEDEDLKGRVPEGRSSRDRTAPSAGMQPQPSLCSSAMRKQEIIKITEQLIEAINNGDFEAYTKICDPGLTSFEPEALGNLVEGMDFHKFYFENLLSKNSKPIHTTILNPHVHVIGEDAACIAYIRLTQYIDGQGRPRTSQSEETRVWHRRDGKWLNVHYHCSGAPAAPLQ

Homo sapiens = species: Homo sapiens; assay: Inhibition of human recombinant p70S6K at 15 nM in presence of ATP by radiometric assay relative to control

SMILES: O=C(N[C@@H](C1CC1)C(F)(F)F)c1cc(-c2cnn3cc(-c4ccc(F)cc4)cnc23)cs1
- fold change (FC) [1]: 0.1
- fold change (FC) [2]: 0.03
- fold change (FC) [3]: 0

SMILES: CNC(=O)c1ccccc1Oc1nc(Nc2cc(OC)c(OC)c(OC)c2)ncc1Br
- inhibition [4]: 1%
- fold change (FC) [5]: 0.01
- inhibition [6]: 70%
- fold change (FC) [7]: 0
- fold change (FC) [8]: 0

SMILES: CC(C)[C@H](NC(=O)c1cc(-c2cnn3cc(-c4ccc(OCCN5CCCCC5)cc4)cnc23)cs1)C(F)(F)F
- fold change (FC) [9]: 0
- fold change (FC) [10]: 0.25
- inhibition (Homo sapiens): 17%
